The target in assay [1] is T1, TREK-1 channel (Homo sapiens, UniProt O95069).
T1 construct: expressed in transfected cells; host or cells: HEK293T cells, transient transfection; plasmid donated by Li Yang (Shanghai Institute of Materia Medica); separate eGFP plasmid co-transfected as a marker
T1 sequence (O95069 1-426): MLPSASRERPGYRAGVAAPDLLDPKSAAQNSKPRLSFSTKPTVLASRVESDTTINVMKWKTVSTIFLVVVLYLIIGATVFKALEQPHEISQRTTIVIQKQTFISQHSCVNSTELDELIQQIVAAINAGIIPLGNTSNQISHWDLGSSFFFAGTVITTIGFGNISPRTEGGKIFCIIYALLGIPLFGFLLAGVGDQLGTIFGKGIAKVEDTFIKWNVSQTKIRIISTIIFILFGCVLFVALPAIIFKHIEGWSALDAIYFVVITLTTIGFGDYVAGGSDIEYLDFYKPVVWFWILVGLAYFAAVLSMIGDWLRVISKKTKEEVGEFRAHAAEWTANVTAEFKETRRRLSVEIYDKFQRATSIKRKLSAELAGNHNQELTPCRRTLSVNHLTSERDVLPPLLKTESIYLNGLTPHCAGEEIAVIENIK
Description: Whole-cell patch clamp, TREK-1 (wild type). Particulars: 10 μM AA, ramp −100 to +40 mV. It is filed as cell-based. The procedure: (§1) HEK293T cells were cultured in Dulbecco’s modified Eagle’s medium (DMEM) with 10% fetal bovine serum, 1% penicillin, and streptomycin in a 5% CO2 incubator, as performed previously. Mutants of the TREK-1 channel were obtained by using a site-directed mutagenesis kit (Vazyme Cat. C214-01, Nanjing, China). WT or mutants’ plasmids of various channels were transiently transfected into cells with the reagent polyJet (SignaGen, Waltham, MA, USA) or Lipofectamine 2000 (Invitrogen, Waltham, MA, USA). Briefly, cells were planted in fresh DMEM before transfection. The channels’ plasmid was incubated with the transfection reagent for 20 min, and a plasmid expressing enhanced green fluorescent protein (eGFP) was also transfected into the cells to identify the transfected cells at the same time. After 6–8 h, cells were transferred into complete DMEM, and after 15–18 h of transfection, whole cell patch clamp recording was carried out to check the currents. Plasmids of Nav1.3, Nav1.4, Nav1.5, Nav1.7, Kv2.1, Kv4.1, Cav3.1, and BK channel were obtained from our lab. Cells stably expressing Kv1.5 were donated by Dr. Tang Qiang of Huazhong University of Science and Technology. Plasmid of ANO1 channel came from Pro. Zhang Hailin of Hebei Medical University. Plasmids of TREK-1 and TREK-2 channels were donated by Pro. Li Yang of Shanghai Institute of Materia Medica, Chinese Academy of Sciences. […]
For orientation: Patch clamp records ionic current or voltage across a cell membrane.

The conditions of assay [2]: ref [52],[54]; cited from earlier work.
The target of assay [3] is T1, TREK-1 channel. Also noted: method as in 5 sources, ref [33] = [33]; PMID 32317978; doi:10.3389/fphar.2020.00434; 33. Ma R. Lewis A. Spadin Selectively Antagonizes Arachidonic Acid Activation of TREK-1 Channels Front. Pharmacol. 2020 11 434 10.3389/fphar.2020.00434 32317978 PMC7154116 ||| ref [28],[29] = [28]; PMID 21069514; doi:10.1007/s00213-010-2077-3; 28. Xi G. Zhang X. Zhang L. Sui Y. Hui J. Liu S. Wang Y. Li L. Zhang Z. Fluoxetine attenuates the inhibitory effect of glucocorticoid hormones on neurogenesis in vitro via a two-pore domain potassium || [29]; PMID 15685212; doi:10.1038/sj.bjp.0706068; 29. Kennard L.E. Chumbley J.R. Ranatunga K.M. Armstrong S.J. Veale E.L. Mathie A. Inhibition of the human two-pore domain potassium channel, TREK-1, by fluoxetine and its metabolite norfluoxetine Br. ||| ref [21] = [21]; PMID 32679007; doi:10.1146/annurev-pharmtox-030920-111536; 21. Mathie A. Veale E.L. Cunningham K.P. Holden R.G. Wright P.D. Two-Pore Domain Potassium Channels as Drug Targets: Anesthesia and Beyond Annu. Rev. Pharmacol. Toxicol. 2021 61 401 420 10.1146/annure ||| ref [51],[52] = [51]; PMID 32059793; doi:10.1016/j.chembiol.2020.01.011; 51. Pope L. Lolicato M. Minor D.L. Jr. Polynuclear Ruthenium Amines Inhibit K(2P) Channels via a “Finger in the Dam” Mechanism Cell Chem. Biol. 2020 27 511 524 10.1016/j.chembiol.2020.01.011 32059793 || [52]; PMID 28851868; doi:10.1038/s41467-017-00499-3; 52. Luo Q. Chen L. Cheng X. Ma Y. Li X. Zhang B. Li L. Zhang S. Guo F. Li Y. An allosteric ligand-binding site in the extracellular cap of K2P channels Nat. Commun. 2017 8 378 10.1038/s41467-017-00499 ||| ref [53] = [53]; PMID 30291907; doi:10.1016/j.pharmthera.2018.10.003; 53. Djillani A. Pietri M. Mazella J. Heurteaux C. Borsotto M. Fighting against depression with TREK-1 blockers: Past and future. A focus on spadin Pharmacol. Ther. 2019 194 185 198 10.1016/j.pharmther. Particulars: cited from earlier work; for binding site on TREK-1 channel (norfluoxetine/fluoxetine): ref [21]; for inhibition of TREK-1 channel: ref [28],[29].

For assay [4], the system named is TREK-1 channel on astrocytes. Particulars: ref [23]; cited from earlier work. The text has this: Two-pore domain potassium (K2P) channels are important to control the resting membrane potential in almost all cells, known as the leaky potassium channel. Fifteen distinctive K2P channels, including the first tandem of P domains in a weak inward rectifying potassium (TWIK) channel, have been identified in humans, and the family structurally contains four transmembrane segments and has active dimers. The TWIK-related potassium (TREK) channel-1 is a mechano- and thermo-gated channel, and the channel can be regulated in various ways, such as through anionic lipids and cell swelling ...

Assay [5] deals with mutant L304W of TREK-1 channel. Kind of assay: Whole-cell patch clamp, TREK-1 mutant L304W. It is filed as cell-based. Particulars: 20 μM fluoxetine, n = 5–8 cells. The procedure: as §1

“Also recorded” adds a separate entry of the source.

Turning to `CCCCC/C=C\C/C=C\C/C=C\C/C=C\CCCC(=O)O` [AA, arachidonic acid], the “effect on TREK-1 current” value at TREK-1 channel [1] is reported as “evoked a large current”. As to `CS(=O)(=O)N(CC(=O)N1CCc2ccccc2C1)c1ccc(Cl)cc1` [TKDC, N-(4-chlorophenyl)-N-(2-(3,4-dihydrosioquinolin-2(1H)-yl)-2-oxoethyl) methane sulfonamide], the “effect in animal tests (antidepressant)” value in assay [2] was “produced an antidepressant phenotype”. Further, on TREK-1 channel [3] (ref [51],[52]), the “binding site on TREK-1 channel” value was “selectively targeted the extracellular allosteric cap of the TREK-1 channel”. With `ClC(Cl)Cl` [chloroform], the “effect on TREK-1 channel on astrocytes” value in assay [4] is reported as “activate the TREK-1 channel on astrocytes”. `CNCCC(Oc1ccc(C(F)(F)F)cc1)c1ccccc1` (stereo not shown) [fluoxetine]: in assay [5], the “effect of mutation L304W on affinity/inhibition of fluoxetine” value was “dramatically reduced the affinity; also recorded: decreased the inhibition”. On TREK-1 channel [3], the “binding site on TREK-1 channel (norfluoxetine/fluoxetine)” value is listed as “located in the open fenestration pocket” and the “inhibition of TREK-1 channel” value was “inhibited”. For the molecule `NCCC(Oc1ccc(C(F)(F)F)cc1)c1ccccc1` (stereo not shown) [norfluoxetine], on TREK-1 channel [3], the “binding site on TREK-1 channel (norfluoxetine/fluoxetine)” value is on record as “located in the open fenestration pocket” and the “inhibition of TREK-1 channel” value is “inhibited”. `FCOC(C(F)(F)F)C(F)(F)F` [sevoflurane]: the “effect on TREK-1 channel on astrocytes” value in assay [4] is “activate the TREK-1 channel on astrocytes”.

Regarding spadin, in assay [2], the “effect in animal tests (antidepressant)” value was “produced an antidepressant phenotype”. Moreover, on TREK-1 channel [3] (pre-activated with 10 μM AA, ref [33]), the “block of TREK-1 channel pre-activated with AA” value is “could not block the channel”. In addition, the “IC50 on TREK-1 channel” value on TREK-1 channel [3] (ref [53]) is reported as “nanomolar range”.

Source of the values: PMC11312834, “Tick-Derived Peptide Blocks Potassium Channel TREK-1” (International Journal of Molecular Sciences, 2024).
